Data as given in patent US5210239A, “Ouinone derivatives and pharmacological use” (Eisai Co., Ltd., priority 1989, dated 1993).
Where two headings read alike, the source gives them in different places.

What was measured:
[1] = test system: rat D-galactosamine (GalN)-induced acute hepatitis model; test: rat D-galactosamine (GalN)-induced acute hepatitis model; assay type: in vivo, Fischer (F 344) male rat; settings: 300 mg/kg GalN s.c., compound 100 mg/kg oral 1 hr after GalN, blood 48 hr after GalN
Description: 300 mg/kg of GalN was subcutaneously injected into a Fischer (F 344) male rat(s) (around 180 g) to induce acute hepatitis. Each test compound was suspended in a 0.5% aqueous methylcellulose solution and orally administered at a dose of 100 mg/kg one hr after the injection of GalN.
Blood was sampled from the tail of the rat 48 hr after the injection of GalN. The blood clotting time was measured by Hepaplastin test (HPT), and at the same time GPT activity in the plasma was measured enzymatically.

[2] = test system: mouse propionibactrium acnes (P. acnes)-lipopolysaccharide (LPS)-induced fulminant hepatitis model; test: mouse P. acnes-lipopolysaccharide (LPS)-induced fulminant hepatitis model; assay type: in vivo, male Balb/c mice; settings: for responders at 100 mg/kg: Cutibacterium acnes, po, 24 h, read-out: Survival rate (%), test compd. group
Description: One mg/mouse of heat-killed P. acnes was intravenously injected into a five-week-old male Balb/c mice and LPS was additionally intravenously injected at a dose of 1 microgram/mouse 7 days after the injection of P.acnes to induce fulminant hepatitis. Each test compound was suspended in a 0.5% methylcellulose solution and orally administered at a dose of 100 mg/kg 30 min before the intravenous injection of LPS.
Survival rates and GPT activity in plasma of the survivors were determined in 24 hours after the intravenous injection of LPS. The mice treated with each test compound against the lethality and hepatic injury induced with P. acnes-LPS are shown in Table 2.

[3] = Toxicity test, one week oral administration; assay type: in vivo; design: dose or concentration left out as unconfirmed; settings: seven-week male SD rat
[4] = read-out: Percentage inhibition (%) GPT (plasma GPT activity)
[5] = read-out: Percentage inhibition (%) HPT (blood clotting time, Hepaplastin test)
[6] = plasma GPT of survivors 24 hours after LPS, 100 mg/kg oral, value is test group

SMILES	inhibition in vivo at 100 mg/kg [1, 4]	inhibition in vivo at 100 mg/kg [1, 5]	responders at 100 mg/kg [2]	GPT (survival rate), test compd. group (%) [part 1] [2, 6]	GPT (Ku/ml), test compd. group [part 2] [2, 6]	death [3]
COC1=C(OC)C(=O)C(/C=C(\CCCSC)C(=O)O)=C(C)C1=O [compound 183]	86%	80%	22%			
CCOC1=C(OCC)C(=O)C(/C=C(\CC2CCCCC2)C(=O)O)=C(C)C1=O [compound 144]	78%	79%	100%	280 ± 31%		
COC1=C(OC)C(=O)C(/C=C(\CC2CCCCC2)C(=O)O)=C(C)C1=O [compound 141]	100%	98%	25%			
CCCCC/C(=C\c1c(C)c(O)c(OCC)c(OCC)c1OCC)C(=O)O [compound 20]	68%	68%	70%	293 ± 65%		
COC1=C(OC)C(=O)C(/C=C(\Cc2cccs2)C(=O)O)=C(C)C1=O [compound 217]	97%	99%	80%			
COc1c(O)c(C)c(/C=C(\C(=O)O)c2ccccc2)c(OC)c1OC [Example 14, (Z)-3-[5-(1-Hydroxy-6-methyl-2,3,4-trimethoxy)phenyl]-2-phenyl-2-propenoic acid]	78%	76%	100%	297 ± 50%		
COC1=C(OC)C(=O)C(/C=C(\CCCCC#N)C(=O)O)=C(C)C1=O [compound 176]	96%	97%	80%		297 ± 50 Ku/ml	
CCCCCCCCC/C(=C\C1=C(C)C(=O)C(OC)=C(OC)C1=O)C(=O)O [Example 4, (E)-3-[5-(2,3-Dimethoxy-6-methyl-1,4-benzoquinoyl)]-2-nonyl-2-propenoic acid]	91%	87%	64%	358 ± 40%		no compound was found to cause death
CCCCCCCCC/C(=C\c1c(C)c(O)c(OC)c(OC)c1O)C(=O)O [compound 127]	60%	71%				
COC1=C(/C=C(\CCC(C)C)C(=O)O)C(=O)C(OC)=C(OC)C1=O [compound 137]	77%	73%	30%			no compound was found to cause death
CCOC1=C(OC)C(=O)C(C)=C(/C=C(\CCC(C)C)C(=O)O)C1=O [compound 135]	52%	51%	50%			
CCOc1c(O)c(C)c(/C=C(\Cc2ccccc2)C(=O)O)c(OCC)c1OCC [compound 79]	94%	89%	50%	1009 ± 196%		
COC1=C(/C=C(\CC2CCCCC2)C(=O)O)C(=O)C(OC)=C(OC)C1=O [compound 149]	93%	95%	67%	209 ± 66%		
CCOC1=C(OC)C(=O)C(C)=C(/C=C(\CC2CCCCC2)C(=O)O)C1=O [compound 142]	76%	67%	100%	381 ± 19%		no compound was found to cause death
